Measured values as given in patent US20200268864A1, “CANCER VACCINE COMPOSITIONS AND METHODS FOR USING SAME TO TREAT CANCER” (Dana-Farber Cancer Institute, Inc., priority 2017, published 2020).

Test system: PPM tumors (Trp53−/−; Pten−/−; c-Myc)
Test: Orthotopic PPM tumor growth (bioluminescence)
Details: mouse, in vivo
Description: All animal experiments described in this study were performed according to the animal protocols approved by the DFCI Institutional Animal Care and Use Committee. Brca1^loxP/loxP [FVB/N] mice, bearing loxP sites in introns 4 and 13 of the Brca1 gene, and Trp53^loxP/loxP[FVB/N] mice bearing loxP in introns 2 and 10 of the p53 gene, were obtained from Dr. Jos Jonkers's laboratory (Netherlands Cancer Institute, Amsterdam, The Netherlands). These mice were intercrossed through multiple generations to create a colony of homozygous Trp53^loxP/loxP/Brca1^loxP/loxP double conditional knockout mice. Ovaries were harvested from 8-week-old female Trp53^loxP/loxP/Brca1^loxP/loxP mice. The ovaries were washed twice with phosphate-buffered and incubated in DMEM/F12 (Ham's) medium containing collagenase and dispase (stem cell technologies) for 40 min at 37° C. […]
Single cells were obtained by digestion of primary ovarian tumors in collagenase buffer and then cultured in MOT media (DMEM/F12, 0.6% FBS, 10 ng/ml EGF, hydrocortisone 1 μg/ml, cholera toxin 1 ng/ml, 100 μg/ml penicillin-streptomycin, 5 μM Y27632). […] The endpoints were determined by tumor burden and ascites. […]

SMILES: O=C(c1cc(Cc2n[nH]c(=O)c3ccccc23)ccc1F)N1CCN(C(=O)C2CC2)CC1 [olaparib, Olaparib]
- progression of Brca-proficient PPM tumors: little effect and not
